assay: GPR120 pERK AlphaScreen SureFire Assay: The human and mouse GPR120-mediated intracellular phosphorylated ERK assays were established using CHOA12 cells stably transfected with the short form of human or mouse GPR120 receptor. Cells were cultured in growth medium consisting of F-12 media (Invitrogen Cat. #11765) with 5% Charcoal/Dextran FBS (Invitrogen Cat. #12676-029), 500 μg/mL GENETICIN® (Life Technologies Cat. #10131-027) and 250 μg/mL Zeocin (Invitrogen Cat. #R250-01). Cells were cryo preserved at a concentration of 2×10^7 cells/mL, in 90% Charcoal/Dextran FBS and 10% DMSO, and frozen in liquid nitrogen at a low passage number.For the pERK assay, 2×10^7 cells/mL cryopreserved human and mouse cells were thawed rapidly in a 37° C. water bath and added to a T-225 flask containing 50 mL growth medium. The flasks were placed in a tissue culture incubator overnight (37° C., 5% CO2). The next day, cells were harvested with trypsin (Gibco Cat. #25300-054), resuspended in serum-containing growth medium and counted using a Cellometer and volume adjusted to a concentration of 0.6×10^6 cells/mL. Cells were plated into 384-well clear bottom tissue culture plates (BD Cat. #353962) at 50 μL/well, for a density of 30,000 cells/well using a MULTIDROP® and incubated for 16-18 hours (overnight) at 37° C. with 5% CO2. The next day, cells were serum starved in 30 μL of F-12 media without any serum or antibiotics for 2 hours at 37° C.Test compounds were 3-fold, 11-point serially diluted in DMSO in a REMP assay plate (Matrix Cat. #4307) by Tecan and 5 μL was transferred into an ECHO source plate (Labcyte Cat. #LC-0200). Cells were then stimulated with 50 nL of compound dilutions using ECHO liquid handler for 7 minutes at 37° C. Compounds ranged from final assay concentrations of 33.33 μM to 0.56 nM.The media was then dumped and cells lysed with 20 μL of 1× Lysis buffer from the AlphaScreen SureFire Phospho-ERK 1/2 Kit (Perkin Elmer Cat. #6760617M). The lysis buffer was diluted 5-fold with water before use. The plate was agitated on a shaker for 10 minutes after which 2 μL was transferred into a 384-well white proxiplate (Perkin Elmer Cat. #6008289). The SureFire assay reagent mix was prepared by mixing 60 parts Reaction Buffer, 10 parts Activation Buffer, 1 part Donor Beads, 1 part Acceptor Beads (Perkin Elmer Cat. #TGRES10K). 3.5 μL/well of this reagent mix was manually added to the proxiplate with a multichannel pipettor. Plates were spun down at 1000 rpm for 2 minutes, followed by light-protected incubation at room temperature for 2 hours. The plates were read on the Alpha-technology compatible Envision multilabel plate reader using AlphaScreen protocol according to manufacturer's specifications. […]; format: cell-based

| Structure (SMILES) | EC50 [nM] |
| --- | --- |
| CC(C)Oc1cc(-c2ccc([C@H]3C[C@@H](OCC(=O)O)C3)cc2)c(F)cn1 | 2070 |
| Cc1nc(C)c(-c2ccc([C@H]3C[C@@H](OCC(=O)O)C3)cc2)s1 | 3460 |
| O=C(O)CO[C@H]1C[C@@H](c2ccc(-c3cc(Oc4ccc(F)cc4)cc(F)c3F)cc2)C1 | 590 |
| O=C(O)CO[C@H]1C[C@@H](c2ccc(-c3ccccc3Oc3ccccc3)cc2)C1 | 1460 |

Source: ChEMBL document CHEMBL5725668, “Cyclobutane containing carboxylic acid GPR120 modulators” (2018)
